Data: PubChem BioAssay AID256 (DTP/NCI, 2004)
Where “and” joins values, the source holds several entries; their conditions need not be identical. Equal entries are not always repeated. Inconclusive results and toxic doses are left out. Rule for the calls: active = survival T/C of 150% or more; inactive = T/C below 125% in these data.

System: CD2F1 mice, L1210 leukemia ip, survival T/C
Experiment: NCI In Vivo Anticancer Drug Screen. Data for tumor model L1210 Leukemia (intraperitoneal) in CD2F1 (CDF1) mice
Details: endpoint: mean survival time, higher = longer survival
Outline: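 Ratio T/C, where T is the treated-group value and C the vehicle-dosed control value, from mice implanted with a transplantable tumor.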

[1] = dose: 100.0 mg/kg/injection, schedule: Q04DX003 (ip), vehicle: saline
[2] = dose: 200.0 mg/kg/injection, schedule: Q04DX003 (ip), vehicle: saline
[3] = dose: 400.0 mg/kg/injection, schedule: Q04DX003 (ip), vehicle: saline
[4] = dose: 100.0 mg/kg/injection, schedule: Q04DX003 (ip), vehicle: saline with Tween-80
[5] = dose: 200.0 mg/kg/injection, schedule: Q04DX003 (ip), vehicle: saline with Tween-80
[6] = dose: 400.0 mg/kg/injection, schedule: Q04DX003 (ip), vehicle: saline with Tween-80
[7] = dose: 100.0 mg/kg/injection, schedule: Q01DX009 (ip), vehicle: Klucel (hydroxypropylcellulose) (HPC)
[8] = dose: 200.0 mg/kg/injection, schedule: Q01DX009 (ip), vehicle: Klucel (hydroxypropylcellulose) (HPC)
[9] = dose: 400.0 mg/kg/injection, schedule: Q01DX009 (ip), vehicle: Klucel (hydroxypropylcellulose) (HPC)
[10] = dose: 25.0 mg/kg/injection, schedule: Q01DX009 (ip), vehicle: saline with Tween-80
[11] = dose: 50.0 mg/kg/injection, schedule: Q01DX009 (ip), vehicle: saline with Tween-80
[12] = dose: 100.0 mg/kg/injection, schedule: Q01DX009 (ip), vehicle: saline with Tween-80
[13] = dose: 100.0 mg/kg/injection, schedule: Q04DX002 (ip), vehicle: saline with Tween-80
[14] = dose: 400.0 mg/kg/injection, schedule: Q04DX002 (ip), vehicle: saline with Tween-80
[15] = dose: 100.0 mg/kg/injection, schedule: Q01DX001 (ip), vehicle: saline with Tween-80
[16] = dose: 200.0 mg/kg/injection, schedule: Q01DX009 (ip), vehicle: saline with Tween-80
[17] = dose: 400.0 mg/kg/injection, schedule: Q01DX009 (ip), vehicle: saline with Tween-80
[18] = dose: 200.0 mg/kg/injection, schedule: Q04DX002 (ip), vehicle: saline with Tween-80

Measured: T/C

CCCC/C=N/NC(=O)c1ccc[n+](C)c1
inactive: [1] 102 % of control | [2] 98 % of control | [3] 105 % of control

COC(=O)CCNc1ccccc1
inactive: dose: 100.0 mg/kg/injection, schedule: Q01DX001 (ip), vehicle: Klucel (hydroxypropylcellulose) (HPC) 101 % of control | [4] 100 % of control | dose: 200.0 mg/kg/injection, schedule: Q01DX001 (ip), vehicle: Klucel (hydroxypropylcellulose) (HPC) 101 % of control | [5] 96 % of control | dose: 400.0 mg/kg/injection, schedule: Q01DX001 (ip), vehicle: Klucel (hydroxypropylcellulose) (HPC) 96 % of control | [6] 96 % of control

NC(=O)Nc1ccccc1
inactive: dose: 100.0 mg/kg/injection, schedule: Q01DX009 (ip), vehicle: saline 98 % of control | dose: 200.0 mg/kg/injection, schedule: Q01DX009 (ip), vehicle: saline 98 % of control | dose: 400.0 mg/kg/injection, schedule: Q01DX009 (ip), vehicle: saline 101 % of control

NC1C(O)C(N)C(O)C(O)C1O (stereo not given)
inactive: dose: 100.0 mg/kg/injection, schedule: Q01DX009 (ip), vehicle: saline sonified 90 % of control | dose: 200.0 mg/kg/injection, schedule: Q01DX009 (ip), vehicle: saline sonified 95 % of control | dose: 400.0 mg/kg/injection, schedule: Q01DX009 (ip), vehicle: saline sonified 95 % of control

O=C(N/N=C/c1ccccc1)c1cc([N+](=O)[O-])cc([N+](=O)[O-])c1
inactive: [7] 94 % of control | [8] 100 % of control | [9] 98 % of control

COC1=C(OC)C(=O)C(C/C=C(\C)CCCC(C)CCCC(C)CCCC(C)C)=C(C)C1=O (stereo not given)
inactive: dose: 100.0 mg/kg/injection, schedule: Q01DX009 (ip), vehicle: other 94 % of control | dose: 200.0 mg/kg/injection, schedule: Q01DX009 (ip), vehicle: other 95 % of control | dose: 400.0 mg/kg/injection, schedule: Q01DX009 (ip), vehicle: other 94 % of control

COc1ccc(NC(=O)Oc2ccccc2C(C)C)cc1
inactive: [10] 97 % of control | dose: 25.0 mg/kg/injection, schedule: Q04DX002 (ip), vehicle: saline with Tween-80 107 % of control | [11] 97 % of control | dose: 50.0 mg/kg/injection, schedule: Q04DX002 (ip), vehicle: saline with Tween-80 111 % of control | [12] 97 % of control | [13] 90 % of control and 96 % of control | [14] 93 % of control

c1ccc(C2=C(c3ccccc3)OC(c3ccccc3)=C(c3ccccc3)O2)cc1
inactive: [10] 92 % of control | dose: 50.0 mg/kg/injection, schedule: Q01DX001 (ip), vehicle: saline with Tween-80 87 % of control | [11] 102 % of control | [15] 89 % of control | [12] 88 % of control

c1ccc(-c2nc(-c3ccccc3)n3nc4c(c3c2-c2ccccc2)CCCCCC4)cc1
inactive: dose: 100.0 mg/kg/injection, schedule: Q01DX001 (ip), vehicle: saline 112 % of control | dose: 200.0 mg/kg/injection, schedule: Q01DX001 (ip), vehicle: saline 108 % of control | dose: 400.0 mg/kg/injection, schedule: Q01DX001 (ip), vehicle: saline 87 % of control

CC1(C)C/C(=C\c2ccc([N+](=O)[O-])cc2)C(=O)c2ccccc21
inactive: dose: 12.5 mg/kg/injection, schedule: Q01DX009 (ip), vehicle: Klucel (hydroxypropylcellulose) (HPC) 102 % of control | dose: 25.0 mg/kg/injection, schedule: Q01DX009 (ip), vehicle: Klucel (hydroxypropylcellulose) (HPC) 98 % of control | dose: 50.0 mg/kg/injection, schedule: Q01DX009 (ip), vehicle: Klucel (hydroxypropylcellulose) (HPC) 96 % of control | [7] 98 % of control | [8] 93 % of control | [9] 94 % of control

CCOC(=O)C(O)c1ccccc1 (stereo not given)
inactive: [12] 101 % of control | [16] 96 % of control | [17] 93 % of control

CCCCCOC(=O)COc1ccc(F)cc1
inactive: [13] 97 % of control | [18] 105 % of control | [14] 101 % of control

Cc1cc2nc(Cc3nc4cc(C)c(C)cc4[nH]3)[nH]c2cc1C
inactive: [11] 93 % of control | [12] 87 % of control | [16] 88 % of control

COc1ccc(N=C(c2ccccc2)c2ccccc2)cc1
inactive: [12] 95 % of control | [1] 89 % of control | [16] 97 % of control | [2] 101 % of control | [17] 91 % of control | [3] 101 % of control

O=[N+]1C=CC(=NN=c2ccn([O-])cc2)C=C1
inactive: [13] 100 % of control | [18] 96 % of control

[Cl][Pt+2][Cl].[NH-]c1ccc(S(=O)(=O)Nc2ccccn2)cc1.[NH-]c1ccc(S(=O)(=O)Nc2ccccn2)cc1
inactive: dose: 25.0 mg/kg/injection, schedule: Q04DX003 (ip), vehicle: saline with Tween-80 97 % of control | dose: 50.0 mg/kg/injection, schedule: Q04DX003 (ip), vehicle: saline with Tween-80 97 % of control | [4] 96 % of control | [5] 102 % of control | [6] 107 % of control

O=C1C=C(Nc2cccc(C(=O)O)c2)c2ccccc2C1=O
inactive: dose: 75.0 mg/kg/injection, schedule: Q01DX001 (ip), vehicle: saline 101 % of control | dose: 300.0 mg/kg/injection, schedule: Q01DX001 (ip), vehicle: saline 101 % of control

CC(SC(C)c1ccccc1)c1ccccc1 (stereo not given)
inactive: [12] 98 % of control | [4] 90 % of control | [16] 98 % of control | [5] 93 % of control | [17] 102 % of control | [6] 90 % of control

[NH-]C1CCCCC1[NH-].[NH-]C1CCCCC1[NH-].[Ni] (stereo not given)
inactive: [13] 110 % of control

Fc1cc(F)c(F)c(Oc2c(F)c(F)c(-c3c(F)c(F)c(F)c(F)c3F)c(F)c2F)c1F
inactive: [4] 100 % of control | [5] 91 % of control | [6] 91 % of control

Cn1c(=O)c2c(nc(Br)n2CC(=O)CF)n(C)c1=O
inactive: dose: 12.5 mg/kg/injection, schedule: Q01DX005 (ip), vehicle: distilled water + Tween-80 97 % of control and 100 % of control and 104 % of control | dose: 25.0 mg/kg/injection, schedule: Q01DX005 (ip), vehicle: distilled water + Tween-80 97 % of control (2×) and 105 % of control | dose: 50.0 mg/kg/injection, schedule: Q01DX005 (ip), vehicle: distilled water + Tween-80 94 % of control and 95 % of control | dose: 100.0 mg/kg/injection, schedule: Q01DX005 (ip), vehicle: distilled water + Tween-80 97 % of control (2×) and 112 % of control | dose: 200.0 mg/kg/injection, schedule: Q01DX005 (ip), vehicle: distilled water + Tween-80 93 % of control and 95 % of control

O=Cc1cc(=O)n2c3c(cccc13)CCC2
inactive: [1] 98 % of control | [2] 98 % of control

c1ccc(CC23CN(C4CCCCC4)CC24N(c2ccccc23)C23CN(C5CCCCC5)CC2(Cc2ccccc2)c2ccccc2N43)cc1 (stereo not given)
inactive: [15] 90 % of control

C1CC2CC1C1OC21 (stereo not given)
inactive: dose: 100.0 mg/kg/injection, schedule: Q04DX003 (ip), vehicle: other 94 % of control | dose: 200.0 mg/kg/injection, schedule: Q04DX003 (ip), vehicle: other 96 % of control | dose: 400.0 mg/kg/injection, schedule: Q04DX003 (ip), vehicle: other 91 % of control

COc1cc(OC)c(NC(=O)Nc2ccc(SCC(=O)O)cc2)cc1Cl
inactive: [11] 93 % of control | [12] 89 % of control | [16] 86 % of control
